Consider four compounds from patent US10570401B2, “Compositions and method for destabilizing, altering, and dispersing biofilms” (priority 2013, dated 2020).

Series [1] deals with bacterial biofilm communities. Put plainly: L-arginine versus D-arginine on bacterial biofilm communities. The class given is cell-based. Conditions: FIG. 11. From the text: Therefore the destabilizing effects of arginine are specific to the L-form.
Series [2] has as its system S. gordonii biofilms. As to the kind of experiment: S. gordonii biofilm formation in saliva, Bioflux microfluidics system. The class given is cell-based. The protocol:
(§1) The effects of arginine-dependent dosing of S. gordonii biofilms is assessed in a modified Bioflux microfluidics system. Human saliva is collected and pooled from ≥6 different volunteers (Cuadra-Saenz et al., Microbiology. 2012; 158(Pt 7):1783-95), diluted to 25%, and additional supplements (e.g. sucrose, haemin, BHI) added as required to simulate different conditions. Note, we grow robust biofilms in even non-supplemented saliva and pooling the saliva minimizes variation in salivary components. To obtain an indication of free arginine levels in pooled saliva, arginine is measured in ≥3 different pooled saliva samples using standard techniques (Jakubovics et al., supra; Van Wuyckhuyse et al., Journal of dental research. 1995; 74(2):686-90). The 24 channels of the Bioflux system are coated with saliva, inoculated with monocultures of S. gordonii (or multi-species biofilms harvested form saliva) and biofilms are developed at 37° C. with cell free saliva. After 20 h, cells are stained with live/dead stain and visualized using a Leica SPE CLSM. Biomass and structural biofilm parameters are quantified using COMSTAT (Heydorn et al., Microbiology. 2000; 146 (Pt 10):2395-407), ImageJ (Collins, Biotechniques. 2007; 43(1 Suppl):25-30), and IMARIS software (Bitplane, Switzerland).

The subject of series [3] is multi-species oral biofilm communities. As to the kind of experiment: Multi-species oral biofilms in static (non-flowing) microplate system, CLSM. The class given is cell-based. The following applies: 500 mM, static microplate system (FIG. 6). An excerpt:
Upper renderings (A1-H1) are of the x-y plane. Middle renderings (A2-H2) are of the x-z plane. Lower renderings (A3-H3) represent an angled view (x-y-z). Bars represent 50 μm.

Series [4] concerns AI-2 production by multi-species biofilms. As to the kind of experiment: AI-2 bioluminescence assay with Vibrio harveyi BB170 on microfluidics efflux of multi-species biofilms. The class given is cell-based. Conditions: fold induction of bioluminescence, increasing arginine concentrations (FIG. 10). An excerpt:
The AI-2 data are normalized to the “control” (non-supplemented saliva).
Values were produced by first taking averages of 4 trials at each concentration and dividing them by the average for the negative control, creating an induction number. […] High AI-2 may also have a destabilizing effect on the community, which could explain or contribute to the structural changes seen in the biofilms.

In series [5] the test system is saliva derived community. As to the kind of experiment: Community composition of saliva-derived biofilms by 454 pyrosequencing. The class given is cell-based. On the procedure:
Black-colored bars represent data derived from the analysis of biofilms developed in flowing non-supplemented saliva while the grey-colored bars represent data derived from the analysis of biofilms developed in 500 mM supplemented saliva. (B) Showing changes in phyla (color coding as before). (C) Showing changes in composition of genera (key is from left to right in order from bottom to top in bar; Neisseria, Granulicatella, Streptococcus, etc).
(§2) This example describes the impact of L-arginine on oral biofilms that contain species grown under conditions representative of the human oral cavity. […] Destabilization was expressed as loss of biofilm structure and change in bacterial community membership, as determined by confocal laser scanning microscopy and 454 pyrosequencing.

The subject of series [6] is pre-formed multi-species oral biofilms.
Series [7] relates to multi-species oral biofilms. Put plainly: Multi-species oral biofilms developed 20 h in flowing saliva (Bioflux microfluidic system), CLSM live/dead. The class given is cell-based. On the procedure: as §1, §2
Green signal indicates viable live cells and red signal indicates damaged/dead cells. […] Data derived from at-least 18 renderings across three experiments and standard deviations are shown in brackets. *P<0.05; **P<0.01; […]: significant differences from the CFS control.

In series [8] the test system is S. gordonii DL1. As to the kind of experiment: Fluorescent reporter plasmid (pPE1010) expression in S. gordonii DL1 biofilms on exogenous AI-2. Conditions: exogenously added AI-2 (FIG. 12B). The class given is cell-based. From the text: A plasmid (See e.g., FIG. 12) was utilized to monitor expression of reporter genes in the presence of arginine or AI-2. The pPE1010 backbone described in England et al. (Proc Natl Acad Sci USA. 2004 Nov. 30; 101(48):16917-22. Epub 2004 Nov. 16) was modified to express fluorescent genes such as GFP or Mcherry in S. gordonii DL1 or other species of streptococci. Specifically, promoters from differentially regulated genes are inserted upstream of a GFP or Mcherry gene harbored on pPE1010 (or similar streptococcal plasmid shuttle vector system) to be differentially expressed (FIGS. 12A and 12B). […] The plasmid provides constitutive-producing fluorescent probes for monitoring bacteria in biofilms and reporter systems that report arginine (or AI-2) concentrations in biofilms such as those found in dental plaque biofilms.

As to `N=C(N)NCCC[C@@H](N)C(=O)O` [D-arginine, reference compound], the “disruption of bacterial biofilm communities” value in series [1] is reported as “does not have the same effect”.
On to `N=C(N)NCCC[C@H](N)C(=O)O` [L-arginine], for which, in series [2] (500 mM arginine, saliva, 20 h (FIG. 3)), the “extent of biofilm present” value is listed as “significantly reduce the extent of biofilm present”. Moreover, the “biofilm formation by S. gordonii” value in series [2] (high (millimolar) concentrations of arginine, dose-dependent) was “abrogate biofilm formation by S. gordonii”. In addition, in series [3], the biofilm architecture entry is reported as “makes the biofilm more diffuse with respect to architecture”, the biofilm biomass result is “reduce biofilm biomass” and the killing result is “No substantial killing was observed”. The “amount of AI-2 produced from multi-species biofilms” value in series [4] was “increases as the concentrations of arginine used to treat them increases”. Further, the “proportion of Veillonella species and non-cariogenic streptococci in biofilms” value in series [5] (500 mM treated biofilms) was “increased”. Further, the “bacterial diversity (operational taxonomic units, OTU)” value in series [5] (prolonged exposure to 500 mM (FIG. 5A)) is listed as “increase in bacterial diversity”. In addition, the “disruption of bacterial biofilm communities” value in series [1] is listed as “disrupts bacterial biofilm communities”. Besides, in series [6] (500 mM (FIG. 8)), the “destabilization of pre-formed biofilms” value was “destabilizes pre-formed multi-species oral biofilms of differing developmental age”. The “penetration of CPC into biofilm” value in series [6] (500 mM L-arginine, CPC 0.01 or 0.05% (FIG. 9)) was “enhance the penetration of CPC”.
Regarding `Cl.N=C(N)NCCC[C@H](N)C(=O)O` [LAHCL, L-arginine monohydrochloride], the “changes in pH” value in series [7] (HCl balanced L-arginine in human saliva) was “No substantial changes in pH”. The “destabilization of oral biofilms (loss of biofilm structure, change in community membership)” value in series [7] (human saliva inoculum, 25% filter-sterilized saliva) is “destabilizes oral biofilms in a concentration dependent manner”. Further, the antimicrobial effects entry in series [7] (only detected as a consequence of biofilm perturbation) was “Very limited antimicrobial effects”.
For the compound autoinducer-2 [AI-2], in series [8], the “reporter expression from 50S ribosomal protein (SGO_1192) promoter” value is “minimal differential expression” and the “reporter expression from catabolite control protein A (SGO_0773; ccpA) promoter” value is reported as “drastically different gene expression”.
